For 4 compounds, EC50, activation and Emax results are on record in patent US8119624B2, “Fused phenyl amido heterocyclic compounds” (Pfizer Inc., priority 2006, dated 2012).

The test addresses T1, Full-length glucokinase (beta cell isoform) (Homo sapiens, UniProt P35557).
T1 construct: Full-length glucokinase (beta cell isoform) was His-tagged at N-terminus; His tag (N); made in house
T1 sequence (P35557 1-465): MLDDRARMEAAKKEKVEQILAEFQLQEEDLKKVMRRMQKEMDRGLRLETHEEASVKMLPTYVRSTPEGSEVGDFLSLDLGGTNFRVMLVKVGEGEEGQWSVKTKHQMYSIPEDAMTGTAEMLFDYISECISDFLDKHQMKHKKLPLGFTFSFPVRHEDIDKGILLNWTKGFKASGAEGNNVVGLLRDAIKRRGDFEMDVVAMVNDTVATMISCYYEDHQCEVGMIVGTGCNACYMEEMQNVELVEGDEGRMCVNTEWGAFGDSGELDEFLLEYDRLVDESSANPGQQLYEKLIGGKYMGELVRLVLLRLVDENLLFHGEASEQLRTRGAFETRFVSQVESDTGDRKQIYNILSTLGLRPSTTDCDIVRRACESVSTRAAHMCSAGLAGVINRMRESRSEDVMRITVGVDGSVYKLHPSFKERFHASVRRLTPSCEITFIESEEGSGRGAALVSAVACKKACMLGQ
Kind of test: Glucokinase biochemical assay (PK/LDH-coupled, NADH depletion at 340 nm): % activation, EC50, % max activation. The conditions noted are these: 5 mM glucose, 1 mM ATP; for EC50 / activation at 10 µM: room temperature; for EC50: read-out: EC50; for activation at 10 µM: compound at 10 uM, read-out: % Activation at 10 uM; for Emax: fitted maximum activation, read-out: % Max Activation. The procedure, abridged: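 N-terminally His-tagged full-length human beta-cell glucokinase, room temperature, 5 mM glucose, 1 mM ATP, PK/LDH-coupled with 0.7 mM NADH, 1% DMSO final. Initial velocity from the 200–900 s slope of A340 decline. % activation = (Va/Vo−1)×100, measured across compound concentrations.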

The structures appear in SMILES notation.

As for `Cn1ccc(NC(=O)c2cc(Oc3ccc(C(=O)N4CCCC4)nc3)c3c(c2)OC(C)(C)C3)n1` [Example 398, 2,2-Dimethyl-4-[6-(pyrrolidine-1-carbonyl)-pyridin-3-yloxy]-2,3-dihydro-benzofuran-6-carboxylic acid(1-methyl-1H-pyrazol-3-yl)-amide], the EC50 (commonly the midpoint of the concentration-response curve) amounted to 0.056 µM, the activation at 10 µM came out at 128% and the Emax was 114%.

For `CN(CC#N)C(=O)c1ccc(Oc2cc(C(=O)Nc3ccn(C)n3)cc3c2CC(C)(C)O3)cn1` [Example 399, 5-[2,2-Dimethyl-6-(1-methyl-1H-pyrazol-3-ylcarbamoyl)-2,3-dihydro-benzofuran-4-yloxy]-pyridine-2-carboxylic acid cyanomethyl-methyl-amide], the EC50 amounted to 0.61 µM, the activation at 10 µM is 212% and the Emax worked out at 231%.

Consider `CNC(=O)c1c(F)cc(Oc2cc(C(=O)Nc3ccn(C)n3)cc3c2CC(C)(C)O3)cc1F` [Example 400, 4-(3,5-Difluoro-4-methylcarbamoyl-phenoxy)-2,2-dimethyl-2,3-dihydro-benzofuran-6-carboxylic acid(1-methyl-1H-pyrazol-3-yl)-amide], for which the EC50 was 0.14 µM, the activation at 10 µM stood at 192% and the Emax stood at 177%.

For the compound `Cn1ccc(NC(=O)c2cc(Oc3cnc(C(=O)N4CC(F)C4)c(F)c3)c3c(c2)OC(C)(C)C3)n1` [Example 403, 4-(5-fluoro-6-(3-fluoroazetidine-1-carbonyl)pyridin-3-yloxy)-2,2-dimethyl-N-(1-methyl-1H-pyrazol-3-yl)-2,3-dihydrobenzofuran-6-carboxamide], the EC50 is 0.121 µM, the activation at 10 µM amounted to 196% and the Emax came to 191%.
